Laboratory results published in patent publication US20140357487A1, “PLANTS HAVING INCREASED TOLERANCE TO HERBICIDES” (BASF SE, priority 2011, published 2014).

Key:
Assay type in all cases: biochemical
[1] = test system: Picrophilus HPPD; assay: HPPD activity assay, Picrophilus HPPD; conditions: normalized on Arabidopsis wild-type HPPD
Experimental: (§1) HPPD produces homogentisic acid and CO2 from 4-hydroxyphenylpyruvate (4-HPP) and O2. The activity assay for HPPD is based on the analysis of homogentisic acid by reversed phase HPLC.
(§2) The assay mixture can contain 150 mM potassium phosphate buffer pH 7.0, 50 mM L-ascorbic acid, 1 μM FeSO4 and 7 μg of purified enzyme in a total volume of 1 ml.
(§3) Inhibitors are dissolved in DMSO (dimethylsulfoxide) to a concentration of 20 mM or 0.5 mM, respectively. From this stock solution serial five-fold dilutions are prepared in DMSO, which are used in the assay. The respective inhibitor solution accounts for 1% of the assay volume. Thus, final inhibitor concentrations range from 200 μM to 2.5 nM or from 5 μM to 63 pM, respectively. After a preincubation of 30 min the reaction is started by adding 4-HPP to a final concentration of 0.1 mM. The reaction is allowed to proceed for 120 min at room temperature. The reaction is stopped by addition of 100 μl of 4.5 M phosphoric acid.
(§4) Activities are normalized by setting the uninhibited enzyme activity to 100%. IC50 values are calculated using non-linear regression.
The assay mixture can contain 150 mM potassium phosphate buffer pH 7.0, 50 mM L-ascorbic acid, 100 μM Catalase (Sigma-Aldrich), 1 μM FeSO4 and 0.2 units of purified HPPD enzyme in a total volume of 505 μl. […]
Inhibitors are dissolved in DMSO (dimethylsulfoxide) to a concentration of 0.5 mM. […] IC50 values are calculated using non-linear regression.
Using methods which are described in the above examples or well known in the art, purified, recombinant wildtype HPPD enzymes are characterized with respect to their kinetic properties and sensitivity towards HPPD inhibiting herbicides. Apparent michaelis constants (Km) and maximal reaction velocities (Vmax) are calculated by non-linear regression with the software GraphPad Prism 5 (GraphPad Software, La Jolla, USA) using a substrate inhibition model. […] Weighted means (by standard error) of Km and […] values are calculated from at least three independent experiments. […]

[2] = molecular target: T1, Hordeum HPPD variant V212L (Hordeum vulgare, UniProt O48604, A164G/R146V/R147D/R148G/V212L); assay: HPPD activity assay, Hordeum HPPD mutant V212L; conditions: normalized on Hordeum wild-type HPPD
T1 construct: His (N); made in house; host or cells: E. coli BL21 (DE3)
Experimental: as §1, §2
as §3, with “Thus, final inhibitor concentrations range from 200 μM to 2.5 nM or from 5 μM to 63 pM, respectively.” left out
as §4
(§5) The assay mixture can contain 150 mM potassium phosphate buffer pH 7.0, 50 mM L-ascorbic acid, 100 μM Catalase (Sigma-Aldrich), 1 μM FeSO4 and 0.2 units of purified HPPD enzyme in a total volume of 505 μl. 1 unit is defined as the amount of enzyme that is required to produce 1 nmol of HGA per minute at 20° C.
(§6) Inhibitors are dissolved in DMSO (dimethylsulfoxide) to a concentration of 0.5 mM. From this stock solution serial five-fold dilutions are prepared in DMSO, which are used in the assay. The respective inhibitor solution accounts for 1% of the assay volume. […] Activities are normalized by setting the uninhibited enzyme activity to 100%. IC50 values are calculated using non-linear regression.
(§7) Purified, mutant HPPD enzymes are obtained by the methods described above. Dose response and kinetic measurements are carried out using the described HPPD activity assay. Apparent michaelis constants (Km) and maximal reaction velocities (Vmax) are calculated by non-linear regression with the software GraphPad Prism 5 (GraphPad Software, La Jolla, USA) using a substrate inhibition model.
(§8) Field performance of the optimized HPPD enzyme, which is used as a herbicide tolerance trait may depend not only on its lack of sensitivity towards HPPD inhibiting herbicides but also on its activity. To assess the potential performance of a herbicide tolerance trait a tolerance index (TI) is calculated using the following formula: […]
(§9) Easy comparison and ranking of each trait is enabled by normalizing tolerance indexes on Arabidopsis or Hordeum wild-type HPPD.

[3] = molecular target: T2, Arabidopsis HPPD (SEQ ID: 53) (Arabidopsis thaliana, UniProt P93836); assay: HPPD activity assay, Arabidopsis wild-type HPPD; parameters: key to Normalized tolerance index TI: tolerance index relative to Arabidopsis wild-type HPPD (= 1); conditions: for Normalized tolerance index TI: normalized on Arabidopsis wild-type HPPD; for tolerance index TI: not normalized
T2 construct: His6 (N); made in house; host or cells: E. coli BL21 (DE3)
T2 sequence (P93836 1-445): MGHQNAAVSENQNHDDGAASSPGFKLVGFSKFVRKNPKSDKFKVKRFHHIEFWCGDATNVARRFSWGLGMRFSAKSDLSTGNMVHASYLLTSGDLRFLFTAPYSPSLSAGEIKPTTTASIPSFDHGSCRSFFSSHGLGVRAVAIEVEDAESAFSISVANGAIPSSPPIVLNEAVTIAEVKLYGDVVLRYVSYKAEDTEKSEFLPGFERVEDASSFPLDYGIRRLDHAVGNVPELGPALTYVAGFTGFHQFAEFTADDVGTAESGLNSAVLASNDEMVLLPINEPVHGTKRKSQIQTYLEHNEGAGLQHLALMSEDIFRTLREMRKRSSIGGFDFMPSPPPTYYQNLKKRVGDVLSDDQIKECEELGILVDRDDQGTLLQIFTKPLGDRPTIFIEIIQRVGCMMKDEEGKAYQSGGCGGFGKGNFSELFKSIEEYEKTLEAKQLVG
Experimental: as §1, §2
as §3, with “Thus, final inhibitor concentrations range from 200 μM to 2.5 nM or from 5 μM to 63 pM, respectively.” left out
as §4, §5, §6
Using methods which are described in the above examples or well known in the art, purified, recombinant wildtype HPPD enzymes are characterized with respect to their kinetic properties and sensitivity towards HPPD inhibiting herbicides. Apparent michaelis constants (Km) and maximal reaction velocities (Vmax) are calculated by non-linear regression with the software GraphPad Prism 5 (GraphPad Software, La Jolla, USA) using a substrate inhibition model.
as §8, with “of the HPPD enzyme,” for “of the optimized HPPD enzyme,”, “herbicide tolerance trait, may depend” for “herbicide tolerance trait may depend”
Easy comparison and ranking of each trait is enabled by normalizing tolerance indexes on Arabidopsis wild-type HPPD.

[4] = molecular target: T3, Hordeum HPPD variant L353M, P321R, V212I, L334E (Hordeum vulgare, UniProt O48604, L334E/L353M/P321R/V212I); assay: HPPD activity assay, Hordeum HPPD mutant L353M, P321R, V212I, L334E; conditions: normalized on Hordeum wild-type HPPD
T3 construct: His (N); made in house; host or cells: E. coli BL21 (DE3)
Experimental: as §1, §2
as §3, with “Thus, final inhibitor concentrations range from 200 μM to 2.5 nM or from 5 μM to 63 pM, respectively.” left out
as §4, §5, §6, §7, §8, §9

[5] = Arabidopsis HPPD Wildtype, Table 15

T3 sequence (O48604 whole entry R146V/R147D/R148G/A164G/V212I/P321R/L334E/L353M): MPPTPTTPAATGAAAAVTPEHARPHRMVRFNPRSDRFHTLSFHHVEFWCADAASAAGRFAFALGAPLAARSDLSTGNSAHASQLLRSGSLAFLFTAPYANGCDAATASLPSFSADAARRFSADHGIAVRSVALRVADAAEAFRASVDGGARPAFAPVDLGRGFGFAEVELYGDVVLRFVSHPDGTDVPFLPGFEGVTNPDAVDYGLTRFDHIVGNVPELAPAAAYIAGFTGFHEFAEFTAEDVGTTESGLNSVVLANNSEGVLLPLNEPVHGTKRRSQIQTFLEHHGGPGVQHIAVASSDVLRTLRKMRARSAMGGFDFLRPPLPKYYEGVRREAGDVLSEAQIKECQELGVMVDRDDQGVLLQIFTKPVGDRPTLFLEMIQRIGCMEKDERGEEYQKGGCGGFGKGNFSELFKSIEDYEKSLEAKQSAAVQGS
T1 sequence (O48604 whole entry R146V/R147D/R148G/A164G/V212L): as the sequence (O48604 whole entry R146V/R147D/R148G/A164G/V212I/P321R/L334E/L353M) above, with I212L, R321P, E334L, M353L counted along it

Row | SMILES | Normalized tolerance index TI [1] | Normalized tolerance index TI [2] | Ki [3] | Normalized tolerance index TI [3, 5] | Normalized tolerance index TI ([3]; Arabidopsis HPPD, Table 12) | tolerance index TI ([3]; Arabidopsis HPPD) | Normalized tolerance index TI [4]
1 | CC1=NOC(c2c(Cl)ccc(C3=C(O)c4ncccc4C(C)(C)S3(=O)=O)c2Cl)C1 (stereo not shown) [Inhibitor 1, 7-[2,4-dichloro-3-(3-methyl-4,5-dihydroisoxazol-5-yl)phenyl]-5,5-dimethyl-6,6-dioxo-thiopyrano[4,3-b]pyridin-8-ol] | 283 | 0.8 | 4.1 nM | 1 | 1 | 4E−3 | 2.2
2 | COCCOCc1c(Cl)ccc(C2=C(O)c3ncccc3C(C)(C)S2(=O)=O)c1Cl [Inhibitor 3, 7-[2,4-dichloro-3-(2-methoxyethoxymethyl)phenyl]-5,5-dimethyl-6,6-dioxo-thiopyrano[4,3-b]pyridin-8-ol] | 17.2 | 0.7 | – | 1 | 1 | – | 2.1
3 | CC1(C)c2cccnc2C(O)=C(c2ccc(Cl)nc2Cl)S1(=O)=O [Inhibitor 2, 7-(2,6-dichloro-3-pyridyl)-5,5-dimethyl-6,6-dioxo-thiopyrano[4,3-b]pyridin-8-ol] | 86.4 | 1.1 | 4.2 nM | 1 | 1 | 4E−3 | 1.9
